Consider one molecule from patent US9918958B2, “Treatment for hypoxia” (priority 2011, dated 2018).

Data set [1] is described as follows: hypoxic challenge test (12% oxygen, SpO2 by pulse oximeter). In kind it is in vivo, human. The method, then:
The hypoxic challenge test was conducted it the following manner: using face masks and air tanks containing 12% oxygen (compared to 21% oxygen in normal air at sea level), subjects inhaled the 12% hypoxic mixture for 5 minutes at a time just prior to starting the dose of study medication (5-HMF or placebo, double-blind) and then again at each of the time intervals 0.75, 2, 4 and 8 hours after the dose. A finger tip oxygen sensing probe connected to a pulse oximeter provided continuous measurement of SpO2 values (percentage of hemoglobin containing at least one oxygen molecule) and the SpO2 values were recorded every 20 seconds during the hypoxic challenge and during a 3-minute recovery period (during which normal air was inspired). The hypoxia challenge was aborted if SpO2 values fell to less than 85%. FIG. 1 illustrates the effect of 5-HMF during a hypoxic challenge. The data compares the fall in mean SpO2 values of placebo and the 2000 mg dose of 5-HMF prior to a hypoxic challenge given at the 2 hour time point post-dose. The mean change in SpO2 levels from start is shown for each one-minute interval of the 5-minute hypoxic challenge. […] It is noteworthy that the difference between placebo and drug becomes greater as the level of hypoxia in the placebo subjects increases. […] Since the level of hypoxic challenge in this initial human study was moderate (no clinical symptoms of hypoxia were present), the impact of 5-HMF should be even greater when the hypoxic challenge is more extreme.
An illustration of the dose-dependent ability of 5-HMF to impact blood oxygenation during a hypoxic challenge is shown in FIG. 2. Because there are appreciable inter-individual differences in the magnitude of the decline of SpO2 in response to a hypoxic challenge, each subject (both placebo and 5-HMF) was tested for the decline in SpO2 at the 5 minute time point for both (i) the challenge given prior to the dose of placebo or 5-HMF and (ii) the challenge given 2 hours after the dose of placebo or 5-HMF. The dotted line in FIG. 2 represents the “baseline” amount of decline occurring during the challenge given prior to dosing placebo or 5-HMF. The results of the decline in SpO2 for each subject at the end the challenge given 2 hours post-dose results were compared to the subject's baseline amount. Thus each subject acted as his/her own control. The blue dots represent individual subject scores and the horizontal black line is the mean SpO2 change relative to the pre-dose hypoxic challenge.

The conditions of data set [2]: animals.
Data set [3] concerns sickle cell disease mouse model. Particulars: cited from earlier work.
For data set [4] the following is noted: human, single doses of 300 mg, 1000 mg, 2000 mg and 4000 mg (n=6 per dose). The method, then:
The study was a double-blind, placebo (n=8) controlled single ascending dose (SAD) trial examining 5-HMF doses of 300 mg, 1000 mg, 2000 mg and 4000 mg (n=6 per dose).

Data set [5] concerns mice. Particulars: simulated altitude of 9,500 meters; cited from earlier work.

As for `O=Cc1ccc(CO)o1` [5-HMF, 5-hydroxymethyl-2-furfural], the “effect on blood oxygen saturation during hypoxia challenge compared to placebo” value in data set [1] (300 mg dose, 2 hours post-dose) is listed as “small”; in data set [1] (all dose levels (300-4000 mg), 2 hours post-dose) it was “increased the blood oxygen saturation of the test subjects compared to placebo at all dose levels”. The “mean change in ending SpO2 levels relative to the pre-dose hypoxic challenge” value in data set [1] (1000 mg dose, 2 hours post-dose, 5 minute time point of challenge) is “approximately 2.5 unit”. Moreover, the “fall in mean SpO2 after one minute of inhalation of hypoxic air” value in data set [1] (2000 mg dose, challenge at 2 hour post-dose, 12% oxygen) came to 5 units. Besides, the “effect on SpO2 during hypoxic challenge relative to placebo” value in data set [1] (2000 mg dose, challenge at 2 hour post-dose, from one minute on for the remainder of the 5-minute challenge) is on record as “less severe decrease in SpO2 during the hypoxic challenge”. Further, the “difference from placebo of the most active dose levels” value in data set [1] (top three doses (1000, 2000, 4000 mg), p=0.0498) is “statistically significant”. Further, the “safety window suggested by repeat dose animal toxicology and safety data” value in data set [2] is reported as “wide safety window in humans is likely”. For the same molecule, in data set [3], the “P50 of SCD Hb” value is listed as “lower P50 (left shift)”. Moreover, the “protection against lethal effects of hypoxia” value in data set [3] is reported as “provides in vivo protection against the lethal effects of hypoxia”. The safety and tolerability result in data set [4] is “safe and well tolerated”. In addition, the “survival under hypobaric hypoxia” value in data set [5] is “increase survival of mice”.
